pEC50, pIC50, pKd: −log10 of the molar value. The source made the active and inactive calls. The rule behind the calls is not given here.

Data set [1] has as its system A549. Kind of data set: cells. To be noted: Homo sapiens, A549, 72 h.
Description: Antiproliferative activity against human A549 cells assessed as reduction in cell viability after 72 hrs by MTT assay
In data set [2] the target is [Pyruvate dehydrogenase (acetyl-transferring)] kinase isozyme 2, mitochondrial (Homo sapiens, UniProt Q15119). Kind of data set: Binding affinity to SUMO-fused/His-tagged PDK2 (unknown origin) expressed in Escherichia coli by isothermal calorimetric titration analysis. (ITC needs no label: the signal is the heat of the interaction.)
Data set [3] addresses T1, Pyruvate dehydrogenase kinase (Homo sapiens) (UniProt Q15119+Q15120+Q16654+Q15118). Put plainly: Inhibition of PDK in human NCI-H1975 cells assessed as reduction in phosphorylated S293 PDC E1 level by ELISA. Type of data set: cell-based. Background: In an ELISA, binding on a coated surface is turned into a signal by an enzyme label.
Data set [4] addresses T1, Pyruvate dehydrogenase kinase (Homo sapiens). Put plainly: Inhibition of PDK in human NCI-H1975 cells assessed as reduction in phosphorylated S293 PDC E1 level at 10 uM by ELISA. Type of data set: cell-based.
For data set [5] the target is unchanged. Put plainly: Inhibition of PDK in human NCI-H1975 cells assessed as reduction in phosphorylated S293 PDC E1 level by Western blot analysis. Type of data set: cell-based. For orientation: A western blot detects proteins with antibodies after separation by electrophoresis.
For data set [6], the target named is [Pyruvate dehydrogenase (acetyl-transferring)] kinase isozyme 4, mitochondrial (Homo sapiens, UniProt Q16654). Put plainly: Binding affinity to SUMO-fused/His-tagged PDK4 (unknown origin) expressed in Escherichia coli by isothermal calorimetric titration analysis.
Data set [7] relates to NCI-H1975. Put plainly: Antiproliferative activity against human NCI-H1975 cells assessed as reduction in cell viability at 10 uM after 72 hrs by MTT assay. Type of data set: functional, cell-based.
In data set [8] the target is [Pyruvate dehydrogenase (acetyl-transferring)] kinase isozyme 3, mitochondrial (Homo sapiens, UniProt Q15120). Kind of data set: Binding affinity to SUMO-fused/His-tagged PDK3 (unknown origin) expressed in Escherichia coli by isothermal calorimetric titration analysis.
The target of data set [9] is T2, [Pyruvate dehydrogenase (acetyl-transferring)] kinase isozyme 1, mitochondrial (Homo sapiens, UniProt Q15118). Kind of data set: Potency index, ratio of DCA EC50 to test compound EC50 for inhibition of PDK1 (unknown origin).
Data set [10] has as its target T2, [Pyruvate dehydrogenase (acetyl-transferring)] kinase isozyme 1, mitochondrial. Kind of data set: Binding affinity to SUMO-fused/His-tagged PDK1 (unknown origin) expressed in Escherichia coli by isothermal calorimetric titration analysis.
Data set [11] shares this target. Kind of data set: Inhibition of PDK1 (unknown origin) using PDH E1 as substrate measured after 30 mins by kinase-glo assay.
Data set [12] has the same target. Kind of data set: Inhibition of PDK1 (unknown origin) at 10 uM using PDH E1 as substrate measured after 30 mins by kinase-glo assay relative to control.
In data set [13] the test system is MRC5. Kind of data set: Cytotoxicity against human MRC5 cells assessed as reduction in cell viability up to 40 uM after 72 hrs by MTT assay. Type of data set: cell-based. Particulars: mrc5, 72 h.
Data set [14] deals with NCI-H1650. Kind of data set: Antiproliferative activity against human NCI-H1650 cells assessed as reduction in cell viability after 72 hrs by MTT assay. To be noted: NCI-H1650, 72 h. Type of data set: functional, cell-based.
Data set [15] has as its target T1, Pyruvate dehydrogenase kinase (Homo sapiens). Kind of data set: Inhibition of PDK in human NCI-H1975 cells assessed as switch of pyruvate metabolism from lactate production to oxidative phosphorylation by measuring decrease in lactate production at 1 to 10 uM measured after 4 hrs. Type of data set: cell-based.
In data set [16] the test system is NCI-H1975. Kind of data set: Antiproliferative activity against human NCI-H1975 cells assessed as reduction in cell viability after 72 hrs by MTT assay. Type of data set: functional, cell-based. Particulars: NCI-H1975, 72 h.
Data set [17] has as its target T1, Pyruvate dehydrogenase kinase (Homo sapiens). Kind of data set: Inhibition of PDK in human NCI-H1975 cells assessed as switch of pyruvate metabolism from lactate production to oxidative phosphorylation by measuring increase in oxygen consumption rate measured after 2 hrs. Type of data set: cell-based.
Data set [18] has the same target. Kind of data set: Inhibition of PDK in human NCI-H1975 cells assessed as switch of pyruvate metabolism from lactate production to oxidative phosphorylation by measuring increase in ROS production at 1 to 10 uM measured after 4 hrs by DCFH-DA dye based assay. Type of data set: cell-based.
Data set [19] deals with NCI-H1975. Kind of data set: Antiproliferative activity against human NCI-H1975 cells assessed as reduction in cell viability at 20 mM after 72 hrs by MTT assay. Type of data set: functional, cell-based.
The target of data set [20] is T2, [Pyruvate dehydrogenase (acetyl-transferring)] kinase isozyme 1, mitochondrial. Particulars: 10 mM.
Description: Inhibition of PDK1 (unknown origin) at 10 mM using PDH E1 as substrate measured after 30 mins by kinase-glo assay relative to control

T2 sequence (Q15118 whole entry, the tested form may be a part): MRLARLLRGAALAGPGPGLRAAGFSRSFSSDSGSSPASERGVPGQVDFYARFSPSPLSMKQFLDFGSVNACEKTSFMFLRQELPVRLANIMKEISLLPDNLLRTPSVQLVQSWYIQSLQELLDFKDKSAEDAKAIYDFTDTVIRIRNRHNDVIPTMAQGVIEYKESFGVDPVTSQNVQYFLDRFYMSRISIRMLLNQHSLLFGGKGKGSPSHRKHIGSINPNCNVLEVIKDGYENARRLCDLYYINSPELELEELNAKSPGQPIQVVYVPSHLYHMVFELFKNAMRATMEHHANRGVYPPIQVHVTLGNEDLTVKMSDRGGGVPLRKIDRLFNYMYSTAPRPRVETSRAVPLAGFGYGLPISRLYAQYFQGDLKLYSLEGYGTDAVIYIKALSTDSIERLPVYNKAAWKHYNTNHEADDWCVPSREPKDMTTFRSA
Chain of [Pyruvate dehydrogenase (acetyl-transferring)] kinase isozyme 4, mitochondrial (Q16654 whole entry, the tested form may be a part): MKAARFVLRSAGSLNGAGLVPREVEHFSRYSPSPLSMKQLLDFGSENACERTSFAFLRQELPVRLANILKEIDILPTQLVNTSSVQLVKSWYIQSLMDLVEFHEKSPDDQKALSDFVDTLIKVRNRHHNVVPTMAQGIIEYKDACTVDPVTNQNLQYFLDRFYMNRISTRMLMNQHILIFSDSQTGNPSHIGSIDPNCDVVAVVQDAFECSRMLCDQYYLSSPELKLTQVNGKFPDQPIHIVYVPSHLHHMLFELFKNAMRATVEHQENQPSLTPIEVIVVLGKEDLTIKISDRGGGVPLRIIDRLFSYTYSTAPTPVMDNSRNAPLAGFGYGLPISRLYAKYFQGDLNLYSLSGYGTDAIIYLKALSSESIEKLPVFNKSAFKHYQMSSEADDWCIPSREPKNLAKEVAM
Chain of [Pyruvate dehydrogenase (acetyl-transferring)] kinase isozyme 3, mitochondrial (Q15120 whole entry, the tested form may be a part): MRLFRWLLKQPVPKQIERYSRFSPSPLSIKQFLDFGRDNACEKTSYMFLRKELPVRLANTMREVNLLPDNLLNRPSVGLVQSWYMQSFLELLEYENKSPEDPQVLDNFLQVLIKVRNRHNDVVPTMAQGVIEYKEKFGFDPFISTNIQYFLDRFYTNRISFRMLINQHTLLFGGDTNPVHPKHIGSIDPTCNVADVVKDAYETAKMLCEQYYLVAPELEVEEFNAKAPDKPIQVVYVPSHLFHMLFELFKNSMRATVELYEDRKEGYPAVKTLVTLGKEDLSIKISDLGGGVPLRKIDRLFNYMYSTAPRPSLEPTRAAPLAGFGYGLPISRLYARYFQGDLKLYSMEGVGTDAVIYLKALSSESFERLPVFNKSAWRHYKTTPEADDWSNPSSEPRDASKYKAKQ

In the case of `CN(Cc1cnc2ccccn12)C(=O)c1cc(COc2ccc3c(c2)OCO3)[nH]n1`, the pIC50 in [1] is 4.75; in data set [14], 4.80. The pKd in data set [2] was 5.70; in [6], 5.59; in data set [8], 5.33; in [10], 5.96. Further, the inhibition entry in data set [3] was “Dose-dependent effect”; in data set [5], “Dose-dependent effect”; in [12] it was 95.6%. Also, in data set [4], the inhibition entry was “Active”. The outcome in data set [7] was Active. Further, in [9], the Ratio EC50 is > 1000. The pEC50 in data set [11] is 6.30. Further, the Activity result in [13] is listed as “Non-Toxic”.

On to `CC(C)=CCN1CCN(Cc2c(C)n(C)n(-c3ccccc3)c2=O)C[C@@H]1CCO`, for which the pKd in [2] was 4.80; in data set [8], 5.05; in [10] it was 4.98. In addition, in data set [4], the inhibition result was “Active”. Also, the Ratio EC50 in [9] was > 1000. The pEC50 in data set [11] was 5.33. Moreover, in data set [12], the inhibition is 86.9%.

Take `OCCn1nc(C2CCOCC2)nc1[C@@H]1CCCCN1Cc1ccccc1`: the pIC50 in [1] was 5.23; in [16] it was 5.48; in data set [14], 5.12. In addition, the pKd in data set [2] was 5.43; in data set [6], 5.10; in [8], 5.68; in data set [10] it was 6.05. Besides, the inhibition entry in data set [3] is “Dose-dependent effect”; in data set [5] it was “Dose-dependent effect”; in data set [17] it was “Dose-dependent effect”; in data set [12] it was 93.7%. Moreover, the inhibition result in [4], in [15] and in [18] was “Active” each time. Moreover, in [7], the outcome was Active. For the same compound, in [9], the Ratio EC50 was > 1000. In data set [11], the pEC50 was 6.38. Further, in [13], the Activity entry is “Non-Toxic”.

Consider `O=C([O-])C(Cl)Cl.[Na+]` [SODIUM DICHLOROACETATE], for which the result in [19] was Active. This compound also gave an inhibition in data set [20] of 64.2%. In addition, the pIC50 in [14] is 1.79.

`CCCCN(Cc1ccncc1)C(=O)c1cc(-c2ccccc2O)n[nH]1`: the pKd in [2] was 5.54; in data set [6] it was 4.97; in data set [8], 5.11; in data set [10] it was 5.24. For the same compound, the inhibition entry in data set [4] was “Active”. Moreover, the Ratio EC50 in [9] is > 1000. Besides, in data set [11], the pEC50 is 5.70. In data set [12], this compound came in with an inhibition of 89.6%.

Regarding `O=C(c1ccccc1)C(Cl)Cl`, the results for the pIC50 in data set [1] and in [14] were 5.33 and 5.10, respectively. The outcome in data set [7] was Active.

The term pIC50 denotes −log10 of the IC50, conventionally taken in molar units. In general, pKd refers to −log10 of the Kd, conventionally taken in molar units. Read a high pKd as a small Kd. By inhibition is commonly meant how much of the control response was suppressed. A word on the pEC50: it is the EC50 on a negative log10 scale, so that one unit is a factor of ten.

For the origin of these results see ChEMBL document CHEMBL4308888, “Discovery of novel pyruvate dehydrogenase kinases inhibitors by screening of an in-house small molecule library for anti-lung cancer therapeutics” (Bioorg Med Chem Lett, 2019).
